The values below come from patent US10039761B2, “Co-crystals and pharmaceutical compositions comprising the same” (Vertex Pharmaceuticals Incorporated, priority 2013, dated 2018).

One test relates to H460. In words: Combination with genotoxic agents, cell viability (Mixtures Blend). The test is classed as cell-based. The arrangement: key to Synergy or Antagonism, Plus Radiation (2 Gy): Plus = enhanced effect of radiation; *: Viability reduction driven predominantly by Compound (1) plus radiation. Conditions: no agent ticked. Here is the method: (§1) The cell-based experiments and assays were performed with either molecule but not always with both. Compounds (1) and (2) were generally very similar in those assays and experiments. Analysis of the combination experiments was performed using two methods: the Bliss Additivity model and the Mixtures Blend method to determine the degree of synergy, additivity, or antagonism. In the Bliss method, a matrix of Bliss scores was generated for each cell line and treatment, and a sum of the Bliss values over the range of combination concentrations tested was calculated. […] Larger average Bliss values indicate greater confidence in reporting synergy, and smaller scores indicate greater confidence in reporting antagonism. In the Mixtures Blend method combinants were added in a range of optimal ratios using design of experiment (DOE) software (DX-8 from STAT-EASE); the cells were irradiated with 2 Gy as required. Synergy was determined using statistical analysis of the data (ANOVA) to indicate linear (additivity) or statistically significant (p<0.1) non-linear (antagonism or synergy) mixes of the combinants. The following SOC agents were tested in double combinations with Compound (1): etoposide (a topoisomerase inhibitor that induces DSBs), cisplatin (DNA cross-linker), carboplatin (DNA cross-linker), fluorouracil (5-FU, antimetabolite that inhibits thymidylate synthase), paclitaxel (mitotic inhibitor that binds to tubulin), cetuximab (EGFR monoclonal antibody), and radiation. […] These findings were confirmed using the Bliss Additivity model (Table 21). […] While there is not total agreement in the various lines tested, (as detailed in the other sections) the majority agree and the conclusions arrived at are common to each. […] The cancer cell lines in Table 19 indicate: ESO26-gastroesophageal junction cancer, OE19-gastroesophageal junction cancer, […]549-lung cancer, colo205-colon cancer, H460-lung cancer, H2009-lung cancer, FaDu-pharynx cancer, Miapaca2-pancreatic cancer, HFL1-human fetal lung fibroblast.

For the next test, the system named is A549. Described as above. On the set-up: key to Synergy or Antagonism, Plus Radiation (2 Gy): Plus = enhanced effect of radiation; *: Viability reduction driven predominantly by Compound (1) plus radiation. The test is classed as cell-based. The procedure:
as §1

In a further test the test system is H2009. The description is as above. The test is classed as cell-based. The arrangement: key to Synergy or Antagonism, Plus Radiation (2 Gy): Plus = enhanced effect of radiation; *: Viability reduction driven predominantly by Compound (1) plus radiation. Conditions: no agent ticked. Here is the method:
as §1

A further test relates to FaDu. Described as above. The test is classed as cell-based. On the set-up: key to Synergy or Antagonism, Plus Radiation (2 Gy): Plus = enhanced effect of radiation; *: Viability reduction driven predominantly by Compound (1) plus radiation. The procedure: as §1
The test system of a further test is FaDu cells. Kind of test: Clonogenic survival of irradiated cancer cell lines. The test is classed as cell-based. The text has this:
(§2) The clonogenic cell survival assay measures the ability of a cell to proliferate indefinitely, thereby retaining its self-renewing ability to form a colony (i.e., clone). This assay has been a mainstay in radiation oncology for decades and was used to determine the effect of Compound (1) on the clonogenicity of a panel of cell lines across multiple tumor types following radiation. […] A DEF greater than 1.5 is generally considered to be clinically meaningful; therefore, by these standards, Compound (1) would be characterized as a strong radio-enhancing agent.

The subject of another test is Miapaca2 cells. The description is as above. Conditions: with radiation; surviving fraction 0.1. The test is classed as cell-based.
Description: as §2

Test [1] deals with OE-19 GEJ cell line xenograft. Kind of test: OE-19 GEJ cell line xenograft efficacy with whole body IR. The test is classed as in vivo. Here is the method: The in vivo efficacies of Compounds (1) and (2) in combination with whole body IR were examined in the OD26749 primary NSCLC (non-small cell lung cancer) and the OE-19 GEJ cell line xenograft models. In these studies, Compounds (1) and (2) were formulated with 16% captisol/1% PVP/1% HPMC E5 pH2.
The OE-19 cell line xenograft model was used to evaluate the efficacy of Compounds (1) and (2) alone and in combination with IR. Two cycles of treatment were administered (Day 0 and Day 7) as performed in the OD26749 model above.
In Tables 14 and 15, for example, PO bid (0, 4 h) indicates Compound (2) is administered twice (bid) at time point 0 and then 4 hours after; IR (0.25 h) qdx3 indicates radiation is administered 15 minutes (0.25 h) after the administration of Compound (2) (0 h), and once a day for 3 days (qdx3); q7dx2 indicates once a week for two weeks; qod indicates every other day twice (e.g., Day 1 and Day 3); and paclitaxel q7dx3 (−0.25 h), carboplatin q7dx3 (−0.25 h) indicates administration of paclitaxel and carboplatin 15 minutes prior to the administration of Compound (2), followed by additional administration of Compound (2) after 4 hours after the first administration of Compound (2).

Test [2] deals with ESO26 (GEJ) cancer cell line. In words: Combination with genotoxic agents, viability (Mixtures analysis). The following applies: single agent IC50 on which the mixtures were based. The test is classed as cell-based. Here is the method: (§3) The cell-based experiments and assays were performed with either molecule but not always with both. Compounds (1) and (2) were generally very similar in those assays and experiments. Analysis of the combination experiments was performed using two methods: the Bliss Additivity model and the Mixtures Blend method to determine the degree of synergy, additivity, or antagonism. In the Bliss method, a matrix of Bliss scores was generated for each cell line and treatment, and a sum of the Bliss values over the range of combination concentrations tested was calculated. […] Larger average Bliss values indicate greater confidence in reporting synergy, and smaller scores indicate greater confidence in reporting antagonism. In the Mixtures Blend method combinants were added in a range of optimal ratios using design of experiment (DOE) software (DX-8 from STAT-EASE); the cells were irradiated with 2 Gy as required. Synergy was determined using statistical analysis of the data (ANOVA) to indicate linear (additivity) or statistically significant (p<0.1) non-linear (antagonism or synergy) mixes of the combinants.

The next test relates to HCC-1599. Kind of test: Doxorubicin combination in triple negative breast cancer cells. The test is classed as cell-based. Conditions: Compound (2) with doxorubicin; plating density unknown; BRCA mutant. Here is the method:
as §3

Another test deals with MDA-MB-468. Described as above. The test is classed as cell-based. Conditions: Compound (2) with doxorubicin, BRCA wild-type. The procedure: as §3

Each structure is given as a SMILES string. “Also recorded” adds a separate entry of the source.

`CNC(=O)c1ccnc2c([C@H](C)CNc3cc(-c4cnc(C)nc4)ncn3)cccc12` [Compound (1), (S)-N-methyl-8-(1-((2′-methyl-[4,5′-bipyrimidin]-6-yl)amino)propan-2-yl)quinoline-4-carboxamide]: the “Synergy or Antagonism, No Radiation” value in the test with H460 is “Synergy”; with A549 (no agent ticked), “Synergy”; in the test on A549 (with Cetuximab), “Additivity”; in the test with A549 (with Cisplatin), “Additivity”; in the test with A549 (with Cisplatin and Etoposide), “Strong Synergy”; with A549 (with Cisplatin and Paclitaxel), “additive; also recorded: Additivity”. For the same molecule, the “Synergy or Antagonism, No Radiation” value is listed as “Strong Synergy” with A549 (with Etoposide); “Antagonism” in the test on A549 (with Paclitaxel); “Additivity” with H2009; “Synergy” in the test with FaDu (no agent ticked); “Additivity” with FaDu (with Cetuximab). In addition, the “Synergy or Antagonism, Plus Radiation (2 Gy)” value with H460 is reported as “Plus”; in the test on A549 (no agent ticked), “Plus”; in the test with A549 (with Cetuximab), “Additivity, Plus”; in the test with A549 (with Cisplatin and Etoposide), “Strong Synergy, Plus”; in the test with A549 (with Cisplatin and Paclitaxel) it was “Synergy, Plus”; in the test with H2009, “Plus”. In addition, the “Synergy or Antagonism, Plus Radiation (2 Gy)” value with FaDu (no agent ticked) was “Plus”; in the test with FaDu (with Cetuximab), “Additivity, Plus”. In addition, the colony formation result in the test on FaDu cells (Compound (1) and radiation, as little as 0.5 Gy) was “completely eliminated colony formation”. For the same molecule, the “dose enhancement factor (DEF)” value is > 8 with FaDu cells (with radiation, surviving fraction 0.1) and 2.5 in the test on Miapaca2 cells. The tumor growth result in [1] (Compound (1) in combination with 2 Gy whole body IR) was “significantly inhibited tumor growth”. The “% T/C (Day 18)” value in [1] (PO 100 mg/kg bid (0, 4 h) qd7x2, 2 Gy IR qd7x2 ([…]) whole body) came to 24.0%; in [1] (PO 100 mg/kg bid (0, 4 h) qd7x 2, no IR), 79.0%.

`[2H]c1nc(C)nc([2H])c1-c1cc(NC[C@@H](C)c2cccc3c(C(=O)NC)ccnc23)ncn1` [Compound (2), (S)-N-methyl-8-(1-((2′-methyl-4′,6′-dideutero-[4,5′-bipyrimidin]-6-yl)amino)propan-2-yl)quinoline-4-carboxamide]: the half-maximal inhibitory concentration (IC50) in [2] amounted to 20 µM. Besides, the figures for the “Average Bliss score” value in the test with HCC-1599, with MDA-MB-468 (plating density 5000) and with MDA-MB-468 (plating density 20000) were 14.3, 23.1 and 24.7, respectively.

A word on the IC50: it is the point on the concentration scale where inhibition reaches its midpoint.
